Test results: article PMC7277541, “Antimicrobial and Antifungal Activities of Terpene-Derived Palladium Complexes” (Antibiotics, 2020)
≈ marks a conversion by molar mass, not a printed value.

Legend:
[1] = system: S. aureus (MRSA) ATCC 43300; experiment: Antibacterial MIC assay, S. aureus (MRSA); type: cell-based, Staphylococcus aureus; conditions: CAMHB, 18 h, growth inhibited by ≥ 80%, range tested 0.25 to 32 μg/mL, n = 2
Procedure: Dry compounds were dissolved in dimethyl sulfoxide (DMSO), and serially diluted 2-fold to produce an 8-point dose response with DMSO/water and then added into microtiter plates with a final DMSO concentration of 0.5%, providing a concentration range of 0.25 to 32 μg/mL. Screening against bacteria and yeasts for antimicrobial activity and toxicity against mammalian cells was performed in duplicate (n = 2).
For the bacterial assays, each bacterial strain was cultured in Cation-Adjusted Mueller Hinton Broth (CAMHB; Bacto Laboratories 212322) at 37 °C overnight. Bacterial strains tested were methicillin resistant S. aureus (methicillin-resistant Staphylococcus aureus - MRSA) ATCC 43300, E. coli ATCC 25922, K. pneumoniae K6/ESBL ATCC 700603, P. aeruginosa ATCC 27853, A. baumannii ATCC 19606. A sample of each culture was then diluted 40-fold in fresh CAMHB and incubated at 37 °C for 1.5–3 h. The resultant mid-log phase cultures were diluted with CAMHB (CFU/mL measured by OD600), then added to each well of the compound-containing plates (384-well non-binding surface (NBS) plates; Corning CLS3640), giving a final cell density of 5 × 10^5 CFU/mL and a total volume of 50 μL. Plates were covered and incubated at 37 °C for 18 h without shaking. Inhibition of bacterial growth was determined by measuring absorbance at 600 nm (OD600), using media only as negative control and bacteria without inhibitors as positive control. MIC values were determined as the lowest concentration at which the growth was inhibited by ≥ 80% (equivalent to no visible growth by eye). Colistin sulfate (Sigma Aldrich, Castle Hill, Australia C4461) and vancomycin HCl (Sigma Aldrich, 861987) were used as positive inhibitor controls on each plate for Gram-negative and Gram-positive bacteria, respectively.

[2] = system: C. albicans ATCC 90028; experiment: Antifungal MIC assay, C. albicans; type: cell-based, Candida albicans; conditions: YNB, 35 °C, 36 h, growth inhibited ≥ 80%; range tested 0.25 to 32 μg/mL; n = 2
Procedure: (§1) All screened compounds were > 95% purity as determined by NMR. Dry compounds were dissolved in dimethyl sulfoxide (DMSO), and serially diluted 2-fold to produce an 8-point dose response with DMSO/water and then added into microtiter plates with a final DMSO concentration of 0.5%, providing a concentration range of 0.25 to 32 μg/mL. Screening against bacteria and yeasts for antimicrobial activity and toxicity against mammalian cells was performed in duplicate (n = 2).
For the fungal assays, yeast strains C. neoformans var. grubii H99 ATCC 208821 and C. albicans ATCC 90028 were cultured for 3 days on Yeast Extract-Peptone Dextrose (YPD; Becton Dickinson 242720) agar at 30 °C. A yeast suspension of 1 × 10^6 to 5 × 10^6 CFU/mL (as determined by OD530) was prepared from five colonies form the agar plates, and subsequently diluted with Yeast Nitrogen Base media (YNB; Becton Dickinson 233520), and added to each well of the compound containing plates (384-well plates, NBS; Corning CLS3640) giving a final cell density of 2.5 × 10^3 CFU/mL and a total volume of 50 μL. Plates were covered and incubated at 35 °C for 36 h without shaking. Growth inhibition of C. albicans was determined measuring absorbance at 630 nm (OD630), while the growth inhibition of C. neoformans was determined measuring the difference in absorbance between 600 and 570 nm (OD600-570), after the addition of resazurin (0.001% final concentration; Sigma R7017) and incubation at 35 °C for 2 h, using media only as negative control and fungi without inhibitors as positive control. MIC values were determined as the lowest concentration at which the growth was inhibited at ≥ 80% (equivalent to no visible growth by eye). Fluconazole (Sigma Aldrich, F8929) was used as a positive inhibitor control on each plate for both strains.

[3] = system: C. neoformans var. grubii H99 ATCC 208821; experiment: Antifungal MIC assay, C. neoformans; type: cell-based, Cryptococcus neoformans; conditions: YNB, 35 °C, 36 h, resazurin, growth inhibited ≥ 80%, range tested 0.25 to 32 μg/mL, n = 2
Procedure: Screening against bacteria and yeasts for antimicrobial activity and toxicity against mammalian cells was performed in duplicate (n = 2). […] Becton Dickinson 242720) agar at 30 °C. A yeast suspension of 1 × 10^6 to 5 × 10^6 CFU/mL (as determined by OD530) was prepared from five colonies form the agar plates, and subsequently diluted with Yeast Nitrogen Base media (YNB; Becton Dickinson 233520), and added to each well of the compound containing plates (384-well plates, NBS; […] Plates were covered and incubated at 35 °C for 36 h without shaking. […] Fluconazole (Sigma Aldrich, F8929) was used as a positive inhibitor control on each plate for both strains.

[4] = system: human embryonic kidney cells (HEK293, ATCC CRL-1573); experiment: Cytotoxicity assay (resazurin); type: cell-based; conditions: HEK293, 20 h incubation
Procedure: (§2) Screening against bacteria and yeasts for antimicrobial activity and toxicity against mammalian cells was performed in duplicate (n = 2). […] HEK293 cells were counted manually in a Neubauer hemocytometer and added to compound-containing plates (384-well plates, tissue culture treated (TC); Corning CLS3712) giving a final density of 5000 cells/well in a total volume of 50 μL, using Dulbecco's Modified Eagle Medium (DMEM; Life Technologies 11995-073) with 10% Fetal Bovine Serum (FBS; GE SH30084.03). […] Sigma R7017) and after further incubation for 3 h at 37 °C in 5% CO2. Media only was used as negative control and cells without inhibitors as positive growth control. CC50 (concentration at 50% cytotoxicity) values were calculated by curve fitting the inhibition values vs. log(concentration) using a sigmoidal dose-response function, with variable fitting values for bottom, top and slope. Tamoxifen (Sigma Aldrich, Australia T5648) was used as positive inhibitor control on each plate. Selectivity indices (SI) were calculated by dividing the CC50 value (μg/mL) by the MIC value (μg/mL) for a given bacterial or fungal strain.

[5] = system: human red blood cells (HRBC); experiment: Haemolysis assay; type: cell-based; conditions: 1 h at 37 °C
Procedure: as §1
Hemolytic activity was assessed against human red blood cells (HRBC), with data presented as HC10, corresponding to the concentration of the compound causing 10% hemolysis. Human whole blood (Australian Red Cross) was washed three times with 3 volumes of 0.9% NaCl and resuspended in a concentration of 0.5 × 10^8 cells/mL, determined by manual cell count in a Neubauer hemocytometer. Washed cells were added to compound containing plates (384-well polypropylene plates (PP); Corning 3657) for a final volume of 50 μL. The plate was shaken with incubation for 1 h at 37 °C. After incubation, the plates were centrifuged at 1000× g for 10 min to pellet cells and debris. Supernatant (25 μL) was then transferred to reading plates (384-well, polystyrene plated (PS), Corning CLS3680), with hemolysis determined by measuring the supernatant absorbance at […] (OD405), using cells without inhibitors as negative control and cells with 1% Triton X-100 (Sigma T8787) as positive control. HC10 and HC50 (concentration at 10% and 50% hemolysis, respectively) were calculated by curve fitting the inhibition values vs. log(concentration) using a sigmoidal dose-response function with variable fitting values for top, bottom and slope. Melittin (Sigma M2272) was used as positive hemolytic control on each plate. Human blood was sourced from the Australian Red Cross Blood Service. Selectivity indices (SI) were calculated by dividing the HC10 value (μg/mL) by the MIC value (μg/mL) for a given bacterial or fungal strain.

[6] = Cytotoxicity assay (resazurin); type: cell-based, human; conditions: human, HEK293 cells (ATCC CRL-1573), HEK293, 20 h incubation, read-out: CC50 (concentration of 50% cytotoxicity)
Procedure: as §2

SMILES | Minimum inhibitory concentration (MIC) S. aureus ATCC 43300 [1] [µg/mL] | Minimum inhibitory concentration (MIC) C. albicans ATCC 90028 [2] [µg/mL] | Minimum inhibitory concentration (MIC) C. neoformans ATCC 208821 [3] [µg/mL] | CC50 (concentration of 50% cytotoxicity) [4] [µg/mL] | HC10 (concentration of 10% haemolysis) [5] [µg/mL] | CC50 at 20 h [6] [µg/mL]
C[C@H](N[C@@H]1C[C@H]2C[C@H](C2(C)C)[C@@]1(C)O)c1cccc[c]1[Pd]([Cl])[P](c1ccccc1)(c1ccccc1)c1ccccc1 [Compound 5, (+)-trans-Chloro{(1R,2R,3R,5R)-3-((S)-1′-phenylethylamino)-2,6,6-trimethylbicyclo[3.1.1]heptane-2-ol-C,N}(triphenylphosphine)palladium(II)] | 16 | 2 | 1 | 2.9 | 5.6 | 
C[C@H](N=C1C[C@H]2C[C@H](C2(C)C)[C@@]1(C)O)c1cccc[c]1[Pd][Cl].C[C@H](N=C1C[C@H]2C[C@H](C2(C)C)[C@@]1(C)O)c1cccc[c]1[Pd][Cl] [Compound 1] | 4 | 1 | 0.5 | 11.9 | 3.9 | 
CC/C(=C(\c1ccccc1)c1ccc(OCCN(C)C)cc1)c1ccccc1 [tamoxifen, Tamoxifen, reference compound] |  |  |  |  |  | 9 (≈ 24.2 µM)
CC[C@H](C)[C@H](NC(=O)CN)C(=O)NCC(=O)N[C@@H](C)C(=O)N[C@H](C(=O)N[C@@H](CC(C)C)C(=O)N[C@@H](CCCCN)C(=O)N[C@H](C(=O)N[C@@H](CC(C)C)C(=O)N[C@H](C(=O)N[C@H](C(=O)NCC(=O)N[C@@H](CC(C)C)C(=O)N1CCC[C@H]1C(=O)N[C@@H](C)C(=O)N[C@@H](CC(C)C)C(=O)N[C@H](C(=O)N[C@@H](CO)C(=O)N[C@@H](Cc1c[nH]c2ccccc12)C(=O)N[C@H](C(=O)N[C@@H](CCCCN)C(=O)N[C@@H](CCCNC(=N)N)C(=O)N[C@@H](CCCCN)C(=O)N[C@@H](CCCNC(=N)N)C(=O)N[C@@H](CCC(N)=O)C(=O)N[C@@H](CCC(N)=O)C(N)=O)[C@@H](C)CC)[C@@H](C)CC)[C@@H](C)O)[C@@H](C)O)C(C)C)C(C)C [melittin, Melittin, reference compound] |  |  |  |  | 2.7 | 
